“And” between values parts separate entries of the source, which are not always exact repeats. Equal entries are not always repeated. “Also recorded” adds a separate entry of the source. Ends that are not written are not given here.
What was measured:
[1] = system: PBMCs of HLA-A24+ patients with hematologic malignancies; experiment: IFN-γ production by peptide-stimulated patient PBMCs in response to peptide-pulsed C1R-A24 cells; assay type: cell-based, human; parameters: peptide-specific IFN-γ production: unit not given here; settings: for peptide-specific IFN-γ production: 10 μM peptide in vitro, vs peptide-pulsed C1R-A24, HIV-peptide background subtracted; for Responding case/total (enhancement of IFN-γ production): ten HLA-A24+ patients with hematologic malignancies
Procedure: The induction of peptide-specific cytotoxic T lymphocytes from PBMCs of a patient with hematologic malignancy was conducted as reported preveously (Non-Patent Reference 5). The following peptides were used to induce cytotoxic T lymphocytes: p56^lck protein-derived peptides (Lck208 (SEQ ID NO: 1), Lck488 (SEQ ID NO: 2) and Lck486 (SEQ ID NO: 3)); SART-1-derived peptide (SART-1690 (SEQ ID NO: 4)); SART-2-derived peptides (SART-293 (SEQ ID NO: 5), SART-2161 (SEQ ID NO: 6) and SART-2899 (SEQ ID NO: 7)); SART-3-derived peptides (SART-3109 (SEQ ID NO: 8) and SART-3315 (SEQ ID NO: 9)); and ART-1-derived peptide (ART-1170 (SEQ ID NO: 10)). All of these peptides are the epithelial cancer-related antigen-derived peptides and have the ability to induce cytotoxic T lymphocytes from PBMCs of an epithelial cancer patient in an HLA-A24 dependent manner (Non-Patent References 3-6 and 12). A human immunodeficiency virus (HIV)-derived peptide (SEQ ID NO: 11) and Epstein-Barr virus (EBV)-derived peptide (SEQ ID NO: 12) were used respectively as a negative control peptide and positive control peptide both of which have an HLA-A24-binding motif. […] PBMCs were prepared from peripheral blood that was collected from a patient with hematologic malignancy using Ficoll-Conray density-gradient centrifugation. The expression of HLA-A24 molecules on PBMCs was determined using flow cytometry by a well known method (Non-Patent Reference 5). The induction of cytotoxic T lymphocytes from PBMCs was conducted as follows. […] The culture medium consisted of 45% RPMI-1640, 45% AIM-V (Invitrogen), 10% FCS, 100 U/ml of interleukin-2 (IL-2), and 0.1 mM MEM non-essential amino acid solution (Invitrogen). […] The background IFN-γ production in response to the HIV-derived peptide (SEQ ID NO: 11) was subtracted from the values given in the data. When the mean value of the IFN-γ produced from the peptide-stimulated PBMCs in response to a corresponding peptide was higher than that produced in response to the HIV peptide (SEQ ID NO: 11), it was judged that the precursor of a peptide-specific cytotoxic T lymphocyte was present in the PBMCs and that the peptide-specific cytotoxic T lymphocytes were induced by the peptide. PBMCs of ten cases of HLA-A24^+ patients with hematologic malignancies (two cases with CLL, one case with MCL, one case with NHL, one case with B-ALL, one case with MM, one case with MDS, two cases with ATL, and one case with T-ALL) were tested for the induction of cytotoxic T lymphocytes using peptides that were derived from p56^lck protein, SART-1, SART-2, SART-3 and ART-1. The peptides used were the peptides that induced peptide-specific tumor-reactive cytotoxic T lymphocytes from PBMCs of an HLA-A24^+ epithelial cancer patient, which are currently on clinical trials for use as vaccines for epithelial cancer patients. The PBMCs were stimulated with the peptide in vitro to measure the peptide-specific IFN-γ production.

[2] = system: C1R-A24 cells pulsed with the peptides; experiment: Peptide-specific cytotoxic activity of PBMCs of vaccinated multiple myeloma patient (51Cr-release); assay type: in vivo, human; settings: for peptide-specific cytotoxic activity of PBMCs: MM patient No. 6, PBMCs acquired after the sixth vaccination; for cytotoxic activity (% lysis) against C1R-A24 cells pulsed with corresponding peptide: MM patient No. 6, with the increasing number of peptide vaccination
Text: The patient (patient No. 6 in table 2) subjected to clinical trials was a HLA-A24^+ […] suffering from IgA-type multiple myeloma with a stage III by Durie & Salmon's classification. The patient received multiple cycles of chemotherapy before participating in this clinical test and had acquired the resistance to chemotherapy. However, for four weeks before peptide vaccination, the patient had not received chemotherapy and administration with steroid or any other immunosuppressive drugs.
Three kinds of emulsions each of which contains each of these peptides respectively and an adjuvant were prepared according to the method described in Example 1, and vaccinated to the patient by injecting subcutaneously at different sites of the patient's lateral thigh. […] The skin test was conducted by injecting intradermally the solution of 50 μg of each peptide in physiological saline and determining immediate-type or delayed-type hypersensitivity reaction at 20 minutes or 24 hours after the injection.
The vaccinations were conducted seven times every two weeks using SART-1690 (SEQ ID NO: 4), Lck488 (SEQ ID NO: 2) and ART-1170 (SEQ ID NO: 10). The cytotoxic activity of PBMCs acquired after the sixth vaccination was measured according to the in vitro test described in Example 3. […] Therefore, in the eighth and later vaccinations, three kinds of emulsions each of which contains SART-1690 (SEQ ID NO: 4), Lck488 (SEQ ID NO: 2) or Lck208 (SEQ ID NO: 1) and an adjuvant were prepared according to the method described in Example 1 and used.
After the vaccinations, PBMCs derived from the patient were studied for their peptide-specific cytotoxic activity by ^51Cr-release test using C1R-A24 cells pulsed with the peptides used. […] On the other hand, their cytotoxic activity was extremely low against RPMI-8226 that is an HLA-A24^− myeloid cell line.

[3] = system: HLA-A24+ PHA blastoid T-cell; experiment: 51Cr-release test of peptide-stimulated PBMCs against normal cells; assay type: cell-based, human; settings: peptide-stimulated patient PBMCs further cultured with IL-2; effector/target 3, 10 or 30; 6 h
Procedure: (§1) Then, the cytotoxicity against hematologic malignant cell lines was examined by a standard ^51Cr-release test (Non-Patent Reference 5). Specifically, the PBMCs obtained were used as an effector to mix with ^51Cr-labelled target cells (hereinafter referred to as targets) at an effector/target rate of 3, 10 or 30, and then incubated for six hours, followed by measuring the radioactivity of ^51Cr released in the supernatants. The results obtained were indicated as % lysis which was calculated by regarding a radioactivity as 100% when the targets were completely dissolved. The following targets were used: PEER, an HLA-A24^+ hematologic malignant cell line; HPB-MLT, an HLA-A24^− hematologic malignant cell line; and an HLA-A24^+ PHA blastoid T-cell.

[4] = system: HLA-A24- hematologic malignant cell line (HPB-MLT); experiment: 51Cr-release test of peptide-stimulated PBMCs against HLA-A24- malignant line; assay type: cell-based, human; settings: peptide-stimulated patient PBMCs further cultured with IL-2; effector/target 3, 10 or 30; 6 h
Procedure: as §1

[5] = system: HLA-A24+ hematologic malignant cell line (PEER, REH); experiment: 51Cr-release test of peptide-stimulated PBMCs against HLA-A24+ malignant line; assay type: cell-based, human; settings: peptide-stimulated patient PBMCs further cultured with IL-2, effector/target 3, 10 or 30, 6 h
Procedure: as §1

| Compound | peptide-specific IFN-γ production ([1]; PBMCs of patient #1 CLL) | peptide-specific IFN-γ production ([1]; PBMCs of patient #2 CLL) | peptide-specific IFN-γ production ([1]; PBMCs of patient #3 MCL) | peptide-specific IFN-γ production ([1]; PBMCs of patient #4 NHL) | peptide-specific IFN-γ production ([1]; PBMCs of patient #5 B-ALL) | peptide-specific IFN-γ production ([1]; PBMCs of patient #6 MM) | peptide-specific IFN-γ production ([1]; PBMCs of patient #7 MDS) | peptide-specific IFN-γ production ([1]; PBMCs of patient #8 ATL) | peptide-specific IFN-γ production ([1]; PBMCs of patient #9 ATL) | peptide-specific IFN-γ production ([1]; PBMCs of patient #10 T-ALL) | Responding case/total (enhancement of IFN-γ production) [1] | peptide-specific cytotoxic activity of PBMCs [2] | also measured |
| --- | --- | --- | --- | --- | --- | --- | --- | --- | --- | --- | --- | --- | --- |
| SART-3315: SART-3-derived peptide; epithelial cancer-related antigen peptide (AYIDFEMKI; Partial peptide of SART-3) | 39 | 137 | 6 | 0 | 11 | 0 | 0 | 22 | 60 | 6 | 1/10 |  |  |
| Lck488: p56lck protein-derived peptide; epithelial cancer-related antigen peptide (DYLRSVLEDF; Partial peptide of p56lck protein) | 0 | 0 | 0 | 0 | 6 | 182 | 102 | 476 | 304 | 0 | four and 4/10 | observed | cytotoxic activity (% lysis) against C1R-A24 cells pulsed with corresponding peptide [2]: enhanced induction of cytotoxic activity |
| AYDFLYNYL [SART-2161] |  |  |  |  |  |  |  |  |  |  |  |  | cytotoxic activity (% lysis) against HLA-A24+ PHA blastoid T-cells [3]: did not show cytotoxic activity; also recorded: did not exhibit cytotoxic activity; cytotoxic activity (% lysis) against HLA-A24- hematologic malignant line [4]: did not show cytotoxic activity; also recorded: did not exhibit cytotoxic activity; cytotoxic activity (% lysis) against HLA-A24+ hematologic malignant line [5]: significant cytotoxic activity; also recorded: exhibited cytotoxic activity |
| SART-1690: SART-1-derived peptide; epithelial cancer-related antigen peptide (EYRGFTQDF; Partial peptide of SART-1) | 0 | 486 | 0 | 53 | 8 | 141 | 0 | 55 | 155 | 26 | 3/10 | observed |  |
| Lck208: p56lck protein-derived peptide, N-terminal residue at position 208; epithelial cancer-related antigen peptide (HYTNASDGL; Partial peptide of p56lck protein) | 0 | 2 | 22 | 30 | 0 | 0 | 0 | 0 | 445 | 153 | two and 2/10 | observed | cytotoxic activity (% lysis) against C1R-A24 cells pulsed with corresponding peptide [2]: enhanced induction of cytotoxic activity |
| RYLRDQQLLGI [HIV, reference compound] |  |  |  |  |  |  |  |  |  |  |  |  | cytotoxic activity (% lysis) against HLA-A24+ hematologic malignant line ([5]; listed as HIV-derived peptide): not observed; cytotoxic activity (% lysis) against HLA-A24+ hematologic malignant line ([5]; listed as human immunodeficiency virus (HIV)-derived peptide): exhibited no cytotoxic activity |
| TFDYLRSVL [Lck486] |  |  |  |  |  |  |  |  |  |  |  |  | cytotoxic activity (% lysis) against HLA-A24+ PHA blastoid T-cells [3]: did not show cytotoxic activity; also recorded: did not exhibit cytotoxic activity; cytotoxic activity (% lysis) against HLA-A24- hematologic malignant line [4]: did not show cytotoxic activity; also recorded: did not exhibit cytotoxic activity; cytotoxic activity (% lysis) against HLA-A24+ hematologic malignant line [5]: significant cytotoxic activity; also recorded: exhibited cytotoxic activity |
| CSCC[C@H](NC(=O)[C@H](Cc1ccccc1)NC(=O)[C@@H](NC(=O)[C@@H]1CCCN1C(=O)CNC(=O)[C@H](Cc1ccc(O)cc1)NC(=O)[C@@H](N)[C@@H](C)O)C(C)C)C(=O)N[C@@H](CS)C(=O)N[C@@H](CC(C)C)C(=O)O [EBV, reference compound] |  |  |  |  |  |  |  |  |  |  |  |  | cytotoxic activity (% lysis) against HLA-A24+ hematologic malignant line ([5]; listed as EBV derive peptides): not observed; cytotoxic activity (% lysis) against HLA-A24+ hematologic malignant line ([5]; listed as EBV-derived peptide): exhibited no cytotoxic activity; cytotoxic activity (% lysis) against HLA-A24+ hematologic malignant line ([5]; listed as Epstein-Barr virus (EBV)-derived peptide): exhibited no cytotoxic activity |

From patent publication US20060240026A1, “Preventing and/or remedy hematopoietic tumor” (GREEN PEPTIDE CO., LTD., priority 2003, published 2006)
